Source: patent EP4813463A2, “TYK2 INHIBITORS AND COMPOSITIONS AND METHODS THEREOF” (Lynk Pharmaceuticals Co. Ltd., priority 2023, dated 2024)

How the values were obtained:
[1] = target: T1, JAK1 (Homo sapiens, UniProt P23458); test: JAK1 kinase activity, microfluidic assay (Caliper EZ Reader II, FAM labeled peptide substrate); format: biochemical; settings: JAK1 10 nM, 1 mM ATP
T1 construct: purchased Carna Biosciences
Protocol: (§1) Testing for JAK1, JAK2 and TYK2 Kinase Activities
(§2) JAK activity was determined in the reaction buffer 50 mM HEPES, 0.01% Brij35, 10 mM MgCl2, 2 mM DTT by a microfluidic assay. The phosphorylation of a FAM labeled peptide substrate was monitored in the Caliper EZ Reader II (Perkin Elmer). The assay condition for each batch of enzyme (Carna Biosciences) was optimized to obtain 10% conversion rate of peptide substrate.
(§3) The test compounds were dissolved in DMSO to a stock concentration of 10 mM. Three-fold serially diluted compounds with top concentration of 5 µM were pre-incubated with JAK1, JAK2 or TYK2 for 10 min at ambient temperature. The final DMSO concentration of assay mixture was 1%. […] The reaction was stopped by adding 50 mM EDTA.
(§4) And the well without compound but with equivalent DMSO was defined as no inhibition. The percent inhibition was calculated by the following formula: % Inhibition = (Conversion%_max−Conversion%_sample)/(Conversion%_max−Conversion%_min) × 100 [formula] wherein • Conversion%_ max = the conversion rate in the positive well without addition of compound • Conversion%_ sample = the conversion rate of test compounds • Conversion%_ min = the conversion rate in the well without addition of enzyme
(§5) The dose-response (percent inhibition) curve was plotted and IC50 values were determined by GraphPad software. The IC50 values of tested compounds were list in Table 3. Table 3. JAK1, JAK2 and TYK2 IC50 Values of Illustrative Compounds

[2] = target: T2, JAK2 (Homo sapiens, UniProt O60674); test: JAK2 kinase activity, microfluidic assay (Caliper EZ Reader II, FAM labeled peptide substrate); format: biochemical; settings: JAK2 1.5 nM, 1 mM ATP
T2 construct: purchased Carna Biosciences
T2 sequence (O60674 849-1124 limits assumed): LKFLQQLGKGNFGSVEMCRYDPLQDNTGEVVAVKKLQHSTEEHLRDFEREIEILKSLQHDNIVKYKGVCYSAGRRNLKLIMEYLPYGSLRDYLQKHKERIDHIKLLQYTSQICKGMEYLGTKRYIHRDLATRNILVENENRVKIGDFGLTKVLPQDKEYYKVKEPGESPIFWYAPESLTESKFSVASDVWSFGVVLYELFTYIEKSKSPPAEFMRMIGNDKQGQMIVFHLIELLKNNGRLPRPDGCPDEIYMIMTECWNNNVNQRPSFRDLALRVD
Protocol: as §1, §2, §3, §4, §5

[3] = target: T3, TYK2 (Homo sapiens, UniProt P29597); test: TYK2 kinase activity, microfluidic assay (Caliper EZ Reader II, FAM labeled peptide substrate); format: biochemical; settings: TYK2 20 nM, 1 mM ATP
T3 construct: purchased Carna Biosciences
T3 sequence (P29597 897-1176 limits assumed): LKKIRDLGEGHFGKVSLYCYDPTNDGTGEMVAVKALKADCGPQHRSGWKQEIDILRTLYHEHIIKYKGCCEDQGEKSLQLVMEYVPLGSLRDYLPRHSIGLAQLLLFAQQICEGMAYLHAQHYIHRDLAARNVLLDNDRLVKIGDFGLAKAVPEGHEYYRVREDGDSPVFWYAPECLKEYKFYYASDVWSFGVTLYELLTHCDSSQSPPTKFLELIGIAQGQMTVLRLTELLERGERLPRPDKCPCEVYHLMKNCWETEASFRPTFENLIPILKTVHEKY
Protocol: as §1, §2, §3, §4, §5

[4] = system: TYK2 pathway; test: IFN-γ release in NK92 cells stimulated by IL-12 (ELISA); format: cell-based; settings: IL-12 2.5ng/mL stimulation 15hrs, IFN-γ in supernatant by ELISA
Protocol: IFN-γ Release in NK92 Cells Stimulated by IL-12
Purpose: To evaluate the inhibition activity of TYK2 inhibitors in NK92 cells on TYK2 pathway through ELISA method.
Procedure: 1) Seeding NK92 cells into 96-well plate, cell density is 1.5E5 cells/well, 100uL/well; 2)Add prepared test articles into indicated wells, 50uL/well, and continue incubate for 1h, at 37°C; 3) After compound treatment, add 50uL/well IL-12 into indicated wells, final concentration of IL-12 is 2.5ng/mL; 4)Incubate cytokine stimulated cells at 37°C for another 15hrs in CO2 incubator; 5) After cytokine stimulation, transfer culture supernatant into a new plate and centrifuge for 5min at 350x g, and detect IFN-γ concentration in the supernatant with ELISA kit; 6) Data analysis with GrapdPad Prism6.0 software. Table 5. IC50 Values of Exemplary Compounds on TYK2 Pathway

[5] = system: pSTAT1; test: Phosphorylation inhibition of STAT in human whole blood (IFN-alpha stimulated, flow cytometry); format: cell-based; settings: T-cell, 20 min, IFN-alpha stimulation 20 mins, CD3 T cells, read-out: pSTAT1 inhibition in hWB (IC50)
Procedure, shortened: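 Fresh human whole blood stimulated 20 min with human universal type I IFN-alpha, then fixed, permeabilised and stained for CD3 and pSTAT1 (Y701). pSTAT1 in T cells read by flow cytometry; IC50 from 4-parameter logistic fit.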

[6] = Caco-2 cell permeability; format: in vitro ADME; settings: human, Caco-2, 10.0 µM, no p-gp inhibitor
Protocol: Compounds permeability was evaluated using Caco-2 cell lines. HBSS buffer was used as transfer buffer. Appropriate dosing and receiver solutions were applied to the donor and receiver chambers to initiate the transport assay in apical to basolateral (A to B) or basolateral to apical (B to A) directions. Compounds were tested at 10.0 µM in the absence of p-gp inhibitor bidirectionally in duplicates. After incubation at 37°C for 90 mins, donor and receiver samples were analyzed by LC-MS/MS. The intestinal absorption potential was assessed using Papp value and efflux ratio.

[7] = system: IFNa pSTAT1; test: Phosphorylation of STAT1 inhibition in HMC3 cells with HTRF assay; format: cell-based; settings: Homo sapiens, HMC3 microglia cells, 50ng/mL hINFα 1 hour, read-out: HTRF_HMC3 IC 50 (IFNa pSTAT1)
Protocol: Seeding HMC3 cells into 96-well plate and incubate overnight. Pre-stimulation with recombinant human IFNα (Sino biological, H08Y), treat cells with compound with different concentration for 1hr. After compound treatment, stimulate cells with 50ng/mL hINFα for another 1 hour (for CCF-STTG1 cells IFNα induction time is 30 mins). After compound treatment and cytokine stimulation, dump old medium and lyse cells with supplemented lysis buffer provided by the HTRF kit (Revvity, 63ADK026PEG) for 30 min at room temperature under shaking. After homogenization by pipetting up and down, transfer 16 µL of cell lysate from the 96-well cell-culture plate to a small volume white 384-well plate, and then add 4 µL of pre-mixed two ready-to-use antibody working solution into each wells. Cover the plate with a plate sealer and incubate it overnight at room temperature. Read the fluorescence emission at two different wavelengths (665nm and 620nm) on microplate reader (Molecular Device, SpectraMax i3X). Collect data and analyzed with GraphPad Prism.

[8] = read-out: Efflux Ratio: Papp(B-A)/Papp(A-B)

T1 sequence (P23458 875-1153 limits assumed): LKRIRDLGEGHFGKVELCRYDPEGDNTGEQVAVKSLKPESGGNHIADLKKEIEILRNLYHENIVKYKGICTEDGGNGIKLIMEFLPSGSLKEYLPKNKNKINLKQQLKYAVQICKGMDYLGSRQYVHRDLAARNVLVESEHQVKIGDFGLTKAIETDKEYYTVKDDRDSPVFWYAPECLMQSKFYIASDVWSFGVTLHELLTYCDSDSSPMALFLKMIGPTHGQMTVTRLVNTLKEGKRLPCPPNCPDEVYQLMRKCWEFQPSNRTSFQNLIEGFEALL

Row | SMILES | IC50 [1] [nM] | IC50 [2] [nM] | IC50 [3] [nM] | IC50 [4] [nM] | IC50 [5] [nM] | Papp A→B at 90 min, 10 µM ([6]; 90 mins, A to B) [×10⁻⁶ cm/s] | Papp B→A at 90 min, 10 µM ([6]; 90 mins, B to A) [×10⁻⁶ cm/s] | efflux ratio at 90 min, 10 µM [6, 8] | IC50 [7] [nM] | Papp A→B at 1.5 h, 10 µM ([6]; 90 mins, A to B) [×10⁻⁶ cm/s] | Papp B→A at 1.5 h, 10 µM ([6]; 90 mins, B to A) [×10⁻⁶ cm/s] | efflux ratio at 1.5 h, 10 µM [6, 8]
1 | [2H]C([2H])([2H])NC(=O)c1cnc(Nc2ccn(C)n2)cc1Nc1cnn2ccc([C@H](O)C(F)(F)F)c(OC)c12 [Example 21, (S)-4-((4-methoxy-5-(2,2,2-trifluoro-1-hydroxyethyl)pyrazolo[1,5-a]pyridin-3-yl)amino)-N-(methyl-d3)-6-((1-methyl-1H-pyrazol-3-yl)amino)nicotinamide] | > 20000 | > 20000 | > 20000 | 14.5 | 22.7 | 0.71 | 47.4 | 67 | – | – | – | –
2 | [2H]C([2H])([2H])NC(=O)c1cnc(NC(=O)C2CC2)cc1Nc1cnn2ccc([C@@H](O)C(F)(F)F)c(OC)c12 [Example 7B, (R)-6-(cyclopropanecarboxamido)-4-((4-methoxy-5-(2,2,2-trifluoro-1-hydroxyethyl)pyrazolo[1,5-a]pyridin-3-yl)amino)-N-(methyl-d3)nicotinamide] | > 20000 | > 20000 | > 20000 | – | 1000 | – | – | – | – | – | – | –
3 | [2H]C([2H])([2H])NC(=O)c1cnc(NC(=O)C2CC2)cc1Nc1nn(C)c2ccc([C@H](OC([2H])([2H])[2H])C(F)(F)F)c(OC)c12 [Example 55A, (S)-6-(cyclopropanecarboxamido)-4-((4-methoxy-1-methyl-5-(2,2,2-trifluoro-1-(methoxy-d3)ethyl)-1H-indazol-3-yl)amino)-N-(methyl-d3)nicotinamide] | > 5000 | > 10000 | > 5000 | – | 24.8 | – | – | – | 0.192 | – | – | –
4 | [2H]C([2H])([2H])NC(=O)c1cnc(NC(=O)C2CC2)cc1Nc1nn(C)c2ccc([C@H](O)C(F)(F)F)c(OC)c12 [Example 49A, (S)-6-(cyclopropanecarboxamido)-4-((4-methoxy-1-methyl-5-(2,2,2-trifluoro-1-hydroxyethyl)-1H-indazol-3-yl)amino)-N-(methyl-d3)nicotinamide] | > 5000 | > 10000 | > 5000 | – | 10.5 | 1.32 | 66.6 | 50.3 | < 0.061 | – | – | –
5 | [2H]C([2H])([2H])NC(=O)c1cnc(NC(=O)C2CC2)cc1Nc1cnn2ccc([C@H](OC)C(F)(F)F)c(OC)c12 [Example 27, (S)-6-(cyclopropanecarboxamido)-4-((4-methoxy-5-(2,2,2-trifluoro-1-methoxyethyl)pyrazolo[1,5-a]pyridin-3-yl)amino)-N-(methyl-d3)nicotinamide] | > 20000 | > 20000 | > 20000 | 6.02 | 51.2 | – | – | – | – | – | – | –
6 | [2H]C([2H])([2H])NC(=O)c1cnc(NC(=O)C2CC2)cc1Nc1cnn2ccc([C@H](O)C(F)(F)F)c(OC)c12 [Example 7A, (S)-6-(cyclopropanecarboxamido)-4-((4-methoxy-5-(2,2,2-trifluoro-1-hydroxyethyl)pyrazolo[1,5-a]pyridin-3-yl)amino)-N-(methyl-d3)nicotinamide] | > 20000 | > 20000 | > 20000 | 9.1 | 31.1 | – | – | – | – | – | – | –
7 | [2H]C([2H])([2H])O[C@@H](c1ccc2c(c(Nc3cc(NC(=O)C4CC4)ncc3C(=O)OC)nn2C)c1OC)C(F)(F)F [Example 50B, Methyl (S)-6-(cyclopropanecarboxamido)-4-((4-methoxy-1-methyl-5-(2,2,2-trifluoro-1-(methoxy-d3)ethyl)-1H-indazol-3-yl)amino)nicotinate] | > 5000 | > 5000 | > 5000 | – | 56.5 | – | – | – | – | – | – | –
8 | [2H]C([2H])([2H])NC(=O)c1nnc(NC(=O)C2CC2)cc1Nc1cnn2ccc([C@H](O)C(F)(F)F)c(OC)c12 [Example 30, (S)-6-(cyclopropanecarboxamido)-4-((4-methoxy-5-(2,2,2-trifluoro-1-hydroxyethyl)pyrazolo[1,5-a]pyridin-3-yl)amino)-N-(methyl-d3)pyridazine-3-carboxamide] | > 20000 | > 20000 | > 20000 | 6.72 | 52.2 | – | – | – | – | – | – | –
9 | COC(=O)c1cnc(NC(=O)[C@@H]2C[C@@H]2F)cc1Nc1nn(C)c2ccc(C(O)C(F)(F)F)c(OC)c12 (single isomer, unassigned) [Example 122A, Methyl 6-((1S,2S)-2-fluorocyclopropane-1-carboxamido)-4-((4-methoxy-1-methyl-5-((S*)-2,2,2-trifluoro-1-hydroxyethyl)-1H-indazol-3-yl)amino) nicotinate] | – | – | – | – | – | – | – | – | < 0.061 | 27.4 | 45.3 | 1.65
10 | COC(=O)c1cnc(NC(=O)C2CC2)cc1Nc1nn(C)c2ccc([C@H](OC)C(F)(F)F)c(OC)c12 [Example 45B, Methyl (S)-6-(cyclopropanecarboxamido)-4-((4-methoxy-1-methyl-5-(2,2,2-trifluoro-1-methoxyethyl)-1H-indazol-3-yl)amino)nicotinate] | – | – | – | – | – | 7.27 | 5.65 | 0.78 | – | – | – | –
11 | [2H]C([2H])([2H])NC(=O)c1cnc(Nc2cc(C)nc(C)n2)cc1Nc1cnn2ccc([C@H](O)C(F)(F)F)c(OC)c12 [Example 25, (S)-6-((2,6-Dimethylpyrimidin-4-yl)amino)-4-((4-methoxy-5-(2,2,2-trifluoro-1-hydroxyethyl)pyrazolo[1,5-a]pyridin-3-yl)amino)-N-(methyl-d3)nicotinamide] | > 20000 | > 20000 | > 20000 | 7.18 | 30.8 | 2.57 | 62.3 | 24.2 | – | – | – | –
12 | COC(=O)c1cnc(NC(=O)C2CC2)cc1Nc1nn(C)c2ccc([C@H](O)C(F)(F)F)c(OC)c12 [Example 48A, Methyl (S)-6-(cyclopropanecarboxamido)-4-((4-methoxy-1-methyl-5-(2,2,2-trifluoro-1-hydroxyethyl)-1H-indazol-3-yl)amino)nicotinate] | > 5000 | > 5000 | > 5000 | – | 29.1 | 29.9 | 29 | 0.97 | < 0.061 | – | – | –
